Square brackets hold non-standard residues; d marks the D form. Peptide text beside a SMILES is read from it. dPhe(4-Cl) = N[C@H](Cc1ccc(Cl)cc1)C(=O)O; d2Nal = N[C@H](Cc1ccc2ccccc2c1)C(=O)O; Lys(iPr) = CC(C)NCCCC[C@H](N)C(=O)O; NMeY = CN[C@@H](Cc1ccc(O)cc1)C(=O)O; d3Pal = N[C@H](Cc1cccnc1)C(=O)O
Legend:
adult male rats = assay: Plasma testosterone in adult male rats given PPI-149 by osmotic pump, then leuprolide; assay type: in vivo, rat; settings: for prevention of leuprolide-induced testosterone surge / suppression of plasma testosterone levels: rat
Protocol: In a first series of experiments, adult male rats were first administered an LHRH antagonist having the structure:
(referred to herein as PPI-149). PPI-149 was administered via a subcutaneous continuous osmotic minipump (e.g., the Alzet pump, commercially available from Alza, Palo Alto, Calif.) at a dose of 15 μg/kg/day or 50 μg/kg/day. PPI-149 administration continued for a total of 15-28 days according to several different protocols. A second pump releasing leuprolide (trade name: Lupron®) at 1.8 μg/kg/day was implanted such that there was an overlap of 0, 1 or 7 days with the previously-implanted pump releasing PPI-149.
In the experiment shown in FIG. 1, PPI-149 (at 15 μg/kg/day or 50 μg/kg/day) was administered by osmotic pump for 28 days and then this pump was removed and a second pump administering leuprolide (at 1.8 μg/kg/day) was implanted such that there was no overlap between the antagonist and agonist treatment. Plasma testosterone levels (in ng/ml) were measured during the prolonged administration of PPI-149 alone and following replacement of the PPI-149 pump with the leuprolide pump.
In the experiment shown in FIG. 2, PPI-149 (at 50 μg/kg/day) was administered by osmotic pump for 15 days and then a second pump administering leuprolide (at 1.8 μg/kg/day) was implanted such that there was one day of overlap between the antagonist and agonist treatment (i.e., the first PPI-149-releasing pump was removed one day after implantation of the second leuprolide-releasing pump). Plasma testosterone levels were measured during the prolonged administration of PPI-149 alone and following removal of the PPI-149 pump when leuprolide alone was administered.
(§1) In the experiment shown in FIG. 3, PPI-149 (at 15 μg/kg/day or 50 μg/kg/day) was administered by osmotic pump for 28 days and then a second pump administering leuprolide (at 1.8 μg/kg/day) was implanted such that there was one day of overlap between the antagonist and agonist treatment (i.e., the first PPI-149-releasing pump was removed one day after implantation of the second leuprolide-releasing pump). Plasma testosterone levels were measured during the prolonged administration of PPI-149 alone and following removal of the PPI-149 pump when leuprolide alone was administered.
as §1, with “4,” for “3,”, “were seven days” for “was one day”, “(i e.,” for “(i.e.,”, “seven days” for “one day”

male cynomolgus monkeys = assay: Plasma testosterone in male cynomolgus monkeys given PPI-149 by osmotic pump, then depot leuprolide; assay type: in vivo; settings: cynomolgus monkey
Protocol: In a second series of experiments, male cynomolgus monkeys were administered the LHRH antagonist PPI-149 via a subcutaneous continuous osmotic minipump (Alzet pump; Alza, Palo Alto, Calif.) at a dose of 0, 30, 100 or 300 μg/kg/day for a period of 28 days. On day 28, pumps were removed and monkeys were administered a single intramuscular dose of the depot, sustained-release (one-month) formulation of Luprong, equivalent to 0.16 mg/kg. This dose of leuprolide is 1.6 times that used in the treatment of prostate cancer in humans (0.1 mg/kg) and 3.2 times that used in the treatment of endometriosis (0.05 mg/kg).

[1] = PPI-149 50 μg/kg/day osmotic pump 15 days, one day overlap with leuprolide 1.8 μg/kg/day (FIG. 2)
[2] = PPI-149 50 μg/kg/day osmotic pump 28 days, one day overlap with leuprolide 1.8 μg/kg/day (FIG. 3)
[3] = PPI-149 50 μg/kg/day osmotic pump 28 days, seven days overlap with leuprolide 1.8 μg/kg/day (FIG. 4)
[4] = PPI-149 50 μg/kg/day s.c. osmotic pump 28 days, no overlap with leuprolide 1.8 μg/kg/day (FIG. 1)

SMILES: CC(=O)N[C@H](Cc1ccc2ccccc2c1)C(=O)N[C@H](Cc1ccc(Cl)cc1)C(=O)N[C@H](Cc1cccnc1)C(=O)N[C@@H](CO)C(=O)N(C)[C@@H](Cc1ccc(O)cc1)C(=O)N[C@H](CC(N)=O)C(=O)N[C@@H](CC(C)C)C(=O)N[C@@H](CCCCNC(C)C)C(=O)N1CCC[C@H]1C(=O)N[C@H](C)C(N)=O [PPI-149, Ac-D-Nal^1,4-Cl-D-Phe^2, D-Pal^3, N-Me-Tyr^5, D-Asn^6, Lys(iPr)^8, D-Ala^10 -LHRH] (Ac-[d2Nal][dPhe(4-Cl)][d3Pal]S[NMeY][dN]L[Lys(iPr)]P[dA]-NH2)
- prevention of testosterone surge induced by LHRH agonist (summary of FIGS. 1-4) (adult male rats; adult male rats, PPI-149 50 μg/kg/day, 0, 1 or 7 days): can prevent the testosterone surge induced by LHRH agonist administration
- prevention of leuprolide-induced testosterone surge (adult male rats; [1]): prevented the leuprolide-induced testosterone surge
- suppression of plasma testosterone levels (adult male rats; [1]): suppressed plasma testosterone levels to castrate levels
- prevention of leuprolide-induced testosterone surge (adult male rats; [2]): prevented the leuprolide-induced testosterone surge
- suppression of plasma testosterone levels (adult male rats; [2]): suppressed plasma testosterone levels to castrate levels
- prevention of leuprolide-induced testosterone surge (adult male rats; [3]): prevented the leuprolide-induced testosterone surge
- suppression of plasma testosterone levels (adult male rats; [3]): suppressed plasma testosterone levels to castrate levels
- prevention of leuprolide-induced testosterone surge (adult male rats; [4]): prevented the leuprolide-induced testosterone surge
- suppression of plasma testosterone levels (adult male rats; [4]): suppressed plasma testosterone levels to castrate levels
- blockade of testosterone surge from depot Lupron (male cynomolgus monkeys; PPI-149 100 μg/kg/day 28 days, pump removed, single i.m. one-month depot leuprolide equivalent to 0.16 mg/kg on day 28 (FIG. 5)): complete blockade of the testosterone surge
- medical castration (plasma testosterone) (male cynomolgus monkeys; PPI-149 100 μg/kg/day s.c. osmotic pump 28 days (FIG. 5)): rapid, complete medical castration within the first two days of treatment

From US5843902A, “Methods for treating prostate cancer with LHRH antagonists” (Praecis Pharmaceuticals Incorporated, priority 1996, dated 1998)
